# Experimental data taken from PMC8776228 (International Journal of Molecular Sciences, 2022).
# Read-outs that look alike come from different tables or passages of the source.
# Assays:
# [1] = test system: M. tuberculosis NTB1 (DprE1 C387S); format: cell-based, Mycobacterium tuberculosis
# [2] = test system: M. tuberculosis 88.7 (pyrG, V186G); format: cell-based, Mycobacterium tuberculosis
# [3] = test system: M. tuberculosis IC2; assay: microbe, parasite or virus in culture; format: cell-based; conditions: Mycobacterium tuberculosis
# [4] = test system: M. tuberculosis 88.1 (coaA, Q207R); format: cell-based, Mycobacterium tuberculosis
# [5] = test system: M. tuberculosis Ty1 (Rv3405c, c190t); format: cell-based, Mycobacterium tuberculosis
# [6] = test system: M. tuberculosis NTB9 (DprE1 C387G); format: cell-based, Mycobacterium tuberculosis
# [7] = test system: M. tuberculosis 53.8 (Rv0579, L240V); format: cell-based, Mycobacterium tuberculosis
# [8] = test system: M. tuberculosis IC1; assay: microbe, parasite or virus in culture; format: cell-based; conditions: Mycobacterium tuberculosis
# [9] = test system: M. tuberculosis DR1 (mmpL3, V681I); format: cell-based, Mycobacterium tuberculosis
# [10] = test system: M. tuberculosis H37Rv-pSODIT:dprE1; assay: microbe, parasite or virus in culture; format: cell-based, Mycobacterium tuberculosis
# [11] = test system: M. tuberculosis 81.10 (ethA, D1109-37); format: cell-based, Mycobacterium tuberculosis
# [12] = test system: M. tuberculosis 53.3 (Rv2466c, W28S); format: cell-based, Mycobacterium tuberculosis
smiles,measurement,setting,value
CO[C@H]1C[C@H](O[C@@H]2/C(C)=C/C[C@@H]3C[C@@H](C[C@]4(CC[C@H](C)[C@@H](C5CCCCC5)O4)O3)OC(=O)[C@@H]3C=C(C)/C(=N/O)[C@H]4OC/C(=C\C=C\[C@@H]2C)[C@]43O)O[C@@H](C)[C@@H]1O [Selamectin],MIC SEL,[1],2 µg/mL
same,change in sensitivity compared to H37Rv (MIC),[1],two-fold increase in sensitivity
same,MIC SEL,[2],2 to 4 µg/mL
same,MIC,"[3]; IC2, read-out: MIC SEL",4 to 8 µg/mL
same,MIC SEL,[4],2 to 4 µg/mL
same,MIC SEL,[5],2 to 4 µg/mL
same,MIC SEL,[6],2 µg/mL
same,change in sensitivity compared to H37Rv (MIC),[6],two-fold increase in sensitivity
same,MIC SEL,[7],2 to 4 µg/mL
same,MIC,"[8]; IC1, read-out: MIC SEL",4 to 8 µg/mL
same,MIC SEL,[9],2 to 4 µg/mL
same,change in susceptibility upon overexpression of dprE1 (MIC),[10],did not confer changes in the susceptibility
same,MIC SEL,[11],4 to 8 µg/mL
same,MIC SEL,[12],2 to 4 µg/mL
C[C@H]1COC2(CCN(c3nc(=O)c4cc(C(F)(F)F)cc([N+](=O)[O-])c4s3)CC2)O1 [BTZ043],MIC BTZ043,[1],>1 µg/mL
same,MIC BTZ043,[6],1 µg/mL
same,MIC,"[10]; Mycobacterium tuberculosis, H37RV, read-out: MIC BTZ043",1 µg/mL
"NNC(=O)c1ccncc1 [INH, isoniazid]",MIC INH,[1],0.025 µg/mL
same,MIC INH,[2],0.025 µg/mL
same,MIC,"[3]; IC2, read-out: MIC INH",> 0.2 µg/mL
same,MIC INH,[4],0.025 µg/mL
same,MIC INH,[5],0.025 µg/mL
same,MIC INH,[6],0.025 µg/mL
same,MIC INH,[7],0.025 µg/mL
same,MIC,"[8]; IC1, read-out: MIC INH",> 0.2 µg/mL
same,MIC INH,[9],0.025 µg/mL
same,MIC INH,[11],0.025 µg/mL
same,MIC INH,[12],0.025 µg/mL
